“Also recorded” adds a separate entry of the source.
Experiments:
[1] = tested on: sensitized and challenged CD8-deficient mice; assay: Secondary allergen challenge model with adoptive transfer: bronchoalveolar lavage (BAL) fluid analyses; type: in vivo, mouse
Experimental: 190, 4056-4065 (2013).; Ohnishi, H., et al. […] J. Allergy Clin. Immunol. 121, 864-871 e864 (2008)) with some modifications. CD8-deficient mice were sensitized with 20 μg of OVA (Calbiochem, La Jolla, Calif.) emulsified in 2.25 mg of alum (AlumImuject; Pierce, Rockford, Ill.) on days 0 and 14 by intraperitoneal injection. […] Omron Healthcare, Kyoto, JP). […] Airway function was measured and samples were collected 48 hours after the secondary challenge. […] Am. J. Respir. Crit. Care Med. 163, 173-184 (2001)). Bronchoalveolar lavage (BAL) fluid analyses: After measurement of AHR, lungs were lavaged via the tracheal tube with 1 ml of HBSS. […] J. Allergy Clin. Immunol. 121, 864-871 e864 (2008)). […] J. Allergy Clin. Immunol. 121, 864-871 e864 (2008)).

[2] = tested on: Cyp11a1; assay: ELISA for pregnenolone in supernatants of CD8+ T cells (CYP11A1 enzymatic activity); type: cell-based, mouse; settings: cells cultured in the presence of 1,25D3 (100 nM or 1 μM)
From the text: (§1) J. Allergy Clin. Immunol. 121, 864-871 e864 (2008)).

[3] = tested on: CD4+ T cells from steroid-resistant asthmatics; settings: 500 nM; cited from earlier work
[4] = tested on: Cyp11a1; assay: qPCR gene expression of Cyp11a1 in CD8+ T cells; type: cell-based, mouse; settings: 100 nM or 1 μM during differentiation in IL-2+IL-4
From the text: as §1

[5] = tested on: Cyp11a1; assay: CYP11A1 immunoblot analyses of CD8+ T cells; type: cell-based, mouse; settings: 100 nM or 1 μM during differentiation in IL-2+IL-4
From the text: J. Allergy Clin. Immunol. 121, 864-871 e864 (2008)). […] Samples were run by sodium dodecyl sulfate polyacrylamide gel electrophoresis (SDS-PAGE) and transferred to nitrocellulose membranes. […] Horseradish peroxidase-conjugated anti-rabbit IgG (GE Healthcare, Hertfordshire, UK) was used to detect CYP11A1 protein. Mouse monoclonal anti-β-actin antibody (Sigma-Aldrich, St. Louis, Mo.) was used as an internal control. Immunoreactive bands were quantified by densitometric quantification of autoradiographs using Image J (NIMH, Bethesda, Md.), and expressed as relative CYP11A1 normalized to β-actin (Sigma-Aldrich, St. Louis, Mo.).

[6] = tested on: Gata3; assay: qPCR gene expression of Gata3 in CD8+ T cells; type: cell-based, mouse; settings: IL-4 and 1,25D3 present during CD8+ T-cell differentiation
From the text: as §1

[7] = tested on: CD8+ T cells; assay: Intracellular staining (flow cytometry) of IFN-γ and IL-13 in CD8+ T cells differentiated in IL-2 or IL-2+IL-4; type: cell-based, mouse
Experimental: as §1
Flow cytometry analyses: For intracellular staining, 1×10^6/ml cells were washed twice with PBS containing 1% BSA, stimulated with 1 μg/ml […] in the presence of 2 μM monensin at 37° C. for 4 hours. After fixation with 4% paraformaldehyde (Electron Microscopy Sciences, Hatfield, Pa.) and permeabilization with 0.1% saponin (Sigma-Aldrich, St. Louis, Mo.), cells were washed twice with PBS containing 1% BSA, then incubated with anti-mouse CD16/CD32 (2.4G2, BD Bioscience, San Jose, Calif.) at 4° C. for 5 minutes, then stained with FITC labeled anti-mouse IFN-γ (XMG 1.2, eBioscience, San Diego, Calif.) and PE-labeled anti-mouse IL-13 (eBio13A, eBioscience, San Diego, Calif.). […] J. Allergy Clin. Immunol. 121, 864-871 e864 (2008)).

[8] = tested on: CD8+ T cells; assay: Cell viability (total cell numbers) during CD8+ T cell differentiation; type: cell-based, mouse; settings: IL-2 or IL-2+IL-4; 100 nM or 1 μM; days 0 and 4
From the text: Data (mean±SEM) are from five experiments. **p<0.01 compared to the IL-2 group on day 4.
as §1

[9] = tested on: sensitized and challenged CD8-deficient mice; assay: Secondary allergen challenge model with adoptive transfer of 1,25D3-treated CD8+ T cells: airway function (AHR); type: in vivo, mouse; settings: transfer of IL-2-differentiated CD8+ T cells cultured with 1,25D3 (100 nM or 1 μM)
Experimental: 190, 4056-4065 (2013).; Ohnishi, H., et al. […] J. Allergy Clin. Immunol. 121, 864-871 e864 (2008)) with some modifications. CD8-deficient mice were sensitized with 20 μg of OVA (Calbiochem, La Jolla, Calif.) emulsified in 2.25 mg of alum (AlumImuject; Pierce, Rockford, Ill.) on days 0 and 14 by intraperitoneal injection. […] Omron Healthcare, Kyoto, JP). […] Airway function was measured and samples were collected 48 hours after the secondary challenge. […] Am. J. Respir. Crit. Care Med. 163, 173-184 (2001)). […] J. Allergy Clin. Immunol. 121, 864-871 e864 (2008)) by measuring changes in airway resistance (RL) in response to increasing doses of inhaled methacholine (MCh, Sigma-Aldrich, St. Louis, Mo.). Data were presented as percentage change from the baseline RL values after saline inhalation.

[10] = tested on: sensitized and challenged CD8-deficient mice; assay: Secondary allergen challenge model with adoptive transfer: lung histology (PAS); type: in vivo, mouse; settings: recipients of 1,25D3-treated CD8+ T cells
Experimental: 190, 4056-4065 (2013).; Ohnishi, H., et al. […] J. Allergy Clin. Immunol. 121, 864-871 e864 (2008)) with some modifications. CD8-deficient mice were sensitized with 20 μg of OVA (Calbiochem, La Jolla, Calif.) emulsified in 2.25 mg of alum (AlumImuject; Pierce, Rockford, Ill.) on days 0 and 14 by intraperitoneal injection. […] Omron Healthcare, Kyoto, JP). […] Airway function was measured and samples were collected 48 hours after the secondary challenge. […] Am. J. Respir. Crit. Care Med. 163, 173-184 (2001)). Lung histology: […] Paraffin sections (5-μm thick) were stained with periodic acid-Schiff (PAS).

[11] = tested on: Tbx21; assay: qPCR gene expression of Tbx21 in CD8+ T cells; type: cell-based, mouse; settings: IL-4 and 1,25D3 present during CD8+ T-cell differentiation
From the text: as §1

[12] = tested on: Cyp11a1; settings: inhibition of the enzymatic activity of CYP11A1; cited from earlier work
[13] = tested on: sensitized and challenged CD8-deficient mice; settings: inhibition of the enzymatic activity of CYP11A1; cited from earlier work
[14] = compared to recipients of untreated cells, 1,25D3 100 nM or 1 μM
[15] = IL-2 + IL-4 + TCR + VitD (100 nM)
[16] = IL-2 + IL-4 + TCR + VitD (100 nM), listed as VitD
[17] = IL-2 + IL-4 + TCR + VitD (1 μM)
[18] = cultured with SIINFEKL and IL-2+IL-4, 1,25D3 100 nM, 1 μM during differentiation

For `C=C1/C(=C\C=C2/CCC[C@]3(C)[C@@H]([C@H](C)CCCC(C)(C)O)CC[C@@H]23)C[C@@H](O)C[C@@H]1O` [1,25D3, 1,25-dihydroxy vitamin D3], the “IL-4 level in BAL fluid” value [1, 14] was “decreased; also recorded: significantly lower”, the “IL-5 level in BAL fluid” value [1, 14] was “decreased; also recorded: significantly lower” and the “IL-13 level in BAL fluid” value [1, 14] was “decreased; also recorded: significantly lower”. The “airway inflammation (cell composition in BAL fluid)” value ([1]; transfer of IL-2-differentiated CD8+ T cells cultured with 1,25D3 (100 nM or 1 μM)) was “failed to restore”, the “pregnenolone levels in supernatants (CYP11A1 enzymatic activity)” value [2] was “markedly reduced; also recorded: decreased” and the “in vitro effectiveness in CD4+ T cells from steroid-resistant asthmatics” value [3] was “effective”. The CYP11A1 transcript levels [4] was “decreased”, the CYP11A1 protein levels [5] was “decreased” and the Gata3 gene expression [6] was “only marginally altered; also recorded: affected”. The “cytokine profiles (IFN-γ and IL-13) of differentiated CD8+ T cells” value ([7]; 1,25D3 (100 nM or 1 μM) added only during antigen (SIINFEKL) re-stimulation phase, last 4 hours, IL-2+IL-4) was “does not alter; also recorded: unaffected”, the “% of positive cells, IFN-γ+” value [7, 15] was 24.5±4.8% and the “% of positive cells, IFN-ν+ IL-13+” value [7, 15] was 4%. The “% of positive cells, IFN-ν− IL-13−” value [7, 15] was 55.1%, the “% of positive cells, IL-13+” value [7, 15] was 11.3±4.8% and the “% of positive cells, IFN-γ+” value [7, 16] was 24.5%. For the same molecule, the “% of positive cells, IL-13+” value [7, 16] was 11.3%, the “% of positive cells, IFN-γ+” value [7, 17] was 30.6% and the “% of positive cells, IFN-ν+ IL-13+” value [7, 17] was 3.5%. The “% of positive cells, IFN-ν− IL-13−” value [7, 17] was 53.9%, the “% of positive cells, IL-13+” value [7, 17] was 8.3% and the “% of positive cells, IFN-γ+” value ([7]; IL-2 + IL-4 + VitD (100 nM)) was 2.2%. The “% of positive cells, IFN-ν+ IL-13+” value ([7]; IL-2 + IL-4 + VitD (100 nM)) was 0.2%, the “% of positive cells, IFN-ν− IL-13−” value ([7]; IL-2 + IL-4 + VitD (100 nM)) was 92.7% and the “% of positive cells, IL-13+” value ([7]; IL-2 + IL-4 + VitD (100 nM)) was 4.6%. For the same molecule, the “% of positive cells, IFN-γ+” value ([7]; IL-2 + IL-4 + VitD (1 μM)) was 2.7%, the “% of positive cells, IFN-ν+ IL-13+” value ([7]; IL-2 + IL-4 + VitD (1 μM)) was 0.2% and the “% of positive cells, IFN-ν− IL-13−” value ([7]; IL-2 + IL-4 + VitD (1 μM)) was 92.9%. For the same molecule, the “% of positive cells, IL-13+” value ([7]; IL-2 + IL-4 + VitD (1 μM)) was 3.8%, the “% of positive cells, IFN-γ+” value ([7]; IL-2 + TCR + VitD (100 nM)) was 76.8% and the “% of positive cells, IFN-ν+ IL-13+” value ([7]; IL-2 + TCR + VitD (100 nM)) was 0.4%. For the same molecule, the “% of positive cells, IFN-ν− IL-13−” value ([7]; IL-2 + TCR + VitD (100 nM)) was 22.6%, the “% of positive cells, IL-13+” value ([7]; IL-2 + TCR + VitD (100 nM)) was 0.1% and the “% of positive cells, IFN-γ+” value ([7]; IL-2 + TCR + VitD (1 μM)) was 76.2%. The “% of positive cells, IFN-ν+ IL-13+” value ([7]; IL-2 + TCR + VitD (1 μM)) was 0.4%, the “% of positive cells, IFN-ν− IL-13−” value ([7]; IL-2 + TCR + VitD (1 μM)) was 23.7% and the “% of positive cells, IL-13+” value ([7]; IL-2 + TCR + VitD (1 μM)) was 0.1%. The “% of positive cells, IFN-γ+” value ([7]; IL-2 + VitD (100 nM)) was 3.1%, the “% of positive cells, IFN-ν+ IL-13+” value ([7]; IL-2 + VitD (100 nM)) was 0% and the “% of positive cells, IFN-ν− IL-13−” value ([7]; IL-2 + VitD (100 nM)) was 96.8%. The “% of positive cells, IL-13+” value ([7]; IL-2 + VitD (100 nM)) was 0.2%, the “% of positive cells, IFN-γ+” value ([7]; IL-2 + VitD (1 μM)) was 4.3% and the “% of positive cells, IFN-ν+ IL-13+” value ([7]; IL-2 + VitD (1 μM)) was 0%. For the same molecule, the “% of positive cells, IFN-ν− IL-13−” value ([7]; IL-2 + VitD (1 μM)) was 95.8%, the “% of positive cells, IL-13+” value ([7]; IL-2 + VitD (1 μM)) was 0.2% and the “IFN-γ+ cells (change)” value [7, 18] was “increase”. For the same molecule, the “percentage of IL-13+ cells (change)” value [7, 18] was “dose-dependent decrease”, the “IFN-γ-producing capacity of Tc1 cells” value ([7]; differentiated in IL-2 alone, 1,25D3 added during differentiation) was “not affected” and the “effect on cell viability” value [8] was “not altered; also recorded: no significant effect”. The “airway hyperresponsiveness (AHR)” value [9] was “fails to induce; also recorded: failed to restore”, the “inflammation in lung sections” value [10] was “less inflammation” and the “numbers of PAS+ mucus-containing goblet cells” value [10] was “prevents; also recorded: significantly decreased numbers”. For the same molecule, the Tbx21 gene expression [11] was “only marginally altered; also recorded: affected”.

In the case of `CCC1(c2ccc(N)cc2)CCC(=O)NC1=O` (stereo not drawn) [AMG, aminoglutethimide], the “conversion of CD8+ T cells to IL-13 production” value [12] is listed as “inhibitory effects” and the “lung allergic responses in sensitized and challenged CD8-deficient mice” value [13] is listed as “failure to restore”.
